US9340590B2 (priority 2011, dated 2016)
Read-outs that look alike come from different tables or passages of the source. Positions of bridges follow the written chain, without caps; N, C: chain ends. Non-standard residues stand in square brackets, D forms with d. Residues, ends and D or L forms follow the SMILES beside them. Groups on a side chain read outwards from the residue. 2Nal = N[C@@H](Cc1ccc2ccccc2c1)C(=O)O; Nle = CCCC[C@H](N)C(=O)O; Pra = C#CC[C@H](N)C(=O)O

Assays:
Test in all cases: cell-based
hNav1.3 = hNav1.3 (Homo sapiens, UniProt Q9NY46); conditions: IonWorks Quattro, read-out: IWQ Use Nav1.3
hNav1.7 = hNav1.7 (Homo sapiens, UniProt Q15858); assay type: cell-based
hNav1.5 = hNav1.5 (Homo sapiens, UniProt Q14524); conditions: IonWorks Quattro, read-out: IWQ Use Nav1.5
[1] = IonWorks Quattro, use-dependent block, hNav1.7, read-out: IWQ Use Nav1.7

Sequence of hNav1.5 (Q14524 whole entry, looked up): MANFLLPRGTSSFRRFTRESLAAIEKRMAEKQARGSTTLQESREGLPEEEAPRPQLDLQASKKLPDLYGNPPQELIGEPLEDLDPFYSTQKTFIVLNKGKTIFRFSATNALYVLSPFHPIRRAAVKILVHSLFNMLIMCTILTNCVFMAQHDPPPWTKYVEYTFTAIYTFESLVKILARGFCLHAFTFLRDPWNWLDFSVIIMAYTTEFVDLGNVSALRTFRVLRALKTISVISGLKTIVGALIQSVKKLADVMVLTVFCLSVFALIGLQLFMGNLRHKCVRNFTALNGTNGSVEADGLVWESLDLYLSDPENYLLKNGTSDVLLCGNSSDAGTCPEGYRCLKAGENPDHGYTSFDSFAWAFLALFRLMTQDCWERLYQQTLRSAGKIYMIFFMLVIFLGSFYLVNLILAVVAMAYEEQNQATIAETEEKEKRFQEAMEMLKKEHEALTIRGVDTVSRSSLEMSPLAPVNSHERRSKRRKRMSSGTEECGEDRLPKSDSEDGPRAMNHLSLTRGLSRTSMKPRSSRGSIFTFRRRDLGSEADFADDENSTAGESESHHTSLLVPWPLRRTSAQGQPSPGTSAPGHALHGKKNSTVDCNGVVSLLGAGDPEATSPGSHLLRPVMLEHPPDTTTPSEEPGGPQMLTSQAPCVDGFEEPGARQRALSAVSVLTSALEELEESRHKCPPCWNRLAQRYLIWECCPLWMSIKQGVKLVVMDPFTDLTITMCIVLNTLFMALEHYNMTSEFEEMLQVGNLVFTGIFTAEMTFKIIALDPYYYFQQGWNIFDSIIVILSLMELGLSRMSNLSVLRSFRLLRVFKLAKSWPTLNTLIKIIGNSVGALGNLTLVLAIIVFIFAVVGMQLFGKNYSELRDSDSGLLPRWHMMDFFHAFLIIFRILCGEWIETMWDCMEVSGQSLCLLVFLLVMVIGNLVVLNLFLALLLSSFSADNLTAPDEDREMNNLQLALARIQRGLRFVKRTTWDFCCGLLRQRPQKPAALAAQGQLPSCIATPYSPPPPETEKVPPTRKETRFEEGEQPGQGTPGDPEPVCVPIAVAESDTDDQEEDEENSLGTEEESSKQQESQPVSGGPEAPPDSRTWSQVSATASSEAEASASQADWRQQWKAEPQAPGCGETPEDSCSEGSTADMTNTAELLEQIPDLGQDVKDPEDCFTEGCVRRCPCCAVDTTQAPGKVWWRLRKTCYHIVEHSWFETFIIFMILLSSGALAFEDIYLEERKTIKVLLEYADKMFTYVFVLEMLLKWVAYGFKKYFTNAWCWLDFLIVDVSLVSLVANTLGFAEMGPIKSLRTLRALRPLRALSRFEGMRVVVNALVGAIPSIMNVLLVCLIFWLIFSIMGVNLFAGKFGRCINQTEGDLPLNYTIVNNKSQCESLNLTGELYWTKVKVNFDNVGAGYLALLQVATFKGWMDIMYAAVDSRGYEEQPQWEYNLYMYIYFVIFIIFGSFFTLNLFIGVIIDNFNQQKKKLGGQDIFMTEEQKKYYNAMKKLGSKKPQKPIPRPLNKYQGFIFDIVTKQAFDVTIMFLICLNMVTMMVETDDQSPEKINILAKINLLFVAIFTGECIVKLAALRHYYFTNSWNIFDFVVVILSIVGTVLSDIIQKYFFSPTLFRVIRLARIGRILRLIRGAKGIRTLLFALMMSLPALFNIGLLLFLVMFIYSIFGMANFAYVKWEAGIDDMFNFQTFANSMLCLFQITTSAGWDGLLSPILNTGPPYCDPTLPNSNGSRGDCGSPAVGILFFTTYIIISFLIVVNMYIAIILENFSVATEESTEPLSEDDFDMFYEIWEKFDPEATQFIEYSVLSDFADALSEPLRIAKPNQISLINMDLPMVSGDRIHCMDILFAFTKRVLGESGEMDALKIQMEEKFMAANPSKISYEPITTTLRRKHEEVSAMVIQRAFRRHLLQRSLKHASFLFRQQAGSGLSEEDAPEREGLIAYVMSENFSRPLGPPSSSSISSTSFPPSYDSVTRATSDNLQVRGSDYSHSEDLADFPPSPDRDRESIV
Sequence of hNav1.7 (Q15858 whole entry, looked up): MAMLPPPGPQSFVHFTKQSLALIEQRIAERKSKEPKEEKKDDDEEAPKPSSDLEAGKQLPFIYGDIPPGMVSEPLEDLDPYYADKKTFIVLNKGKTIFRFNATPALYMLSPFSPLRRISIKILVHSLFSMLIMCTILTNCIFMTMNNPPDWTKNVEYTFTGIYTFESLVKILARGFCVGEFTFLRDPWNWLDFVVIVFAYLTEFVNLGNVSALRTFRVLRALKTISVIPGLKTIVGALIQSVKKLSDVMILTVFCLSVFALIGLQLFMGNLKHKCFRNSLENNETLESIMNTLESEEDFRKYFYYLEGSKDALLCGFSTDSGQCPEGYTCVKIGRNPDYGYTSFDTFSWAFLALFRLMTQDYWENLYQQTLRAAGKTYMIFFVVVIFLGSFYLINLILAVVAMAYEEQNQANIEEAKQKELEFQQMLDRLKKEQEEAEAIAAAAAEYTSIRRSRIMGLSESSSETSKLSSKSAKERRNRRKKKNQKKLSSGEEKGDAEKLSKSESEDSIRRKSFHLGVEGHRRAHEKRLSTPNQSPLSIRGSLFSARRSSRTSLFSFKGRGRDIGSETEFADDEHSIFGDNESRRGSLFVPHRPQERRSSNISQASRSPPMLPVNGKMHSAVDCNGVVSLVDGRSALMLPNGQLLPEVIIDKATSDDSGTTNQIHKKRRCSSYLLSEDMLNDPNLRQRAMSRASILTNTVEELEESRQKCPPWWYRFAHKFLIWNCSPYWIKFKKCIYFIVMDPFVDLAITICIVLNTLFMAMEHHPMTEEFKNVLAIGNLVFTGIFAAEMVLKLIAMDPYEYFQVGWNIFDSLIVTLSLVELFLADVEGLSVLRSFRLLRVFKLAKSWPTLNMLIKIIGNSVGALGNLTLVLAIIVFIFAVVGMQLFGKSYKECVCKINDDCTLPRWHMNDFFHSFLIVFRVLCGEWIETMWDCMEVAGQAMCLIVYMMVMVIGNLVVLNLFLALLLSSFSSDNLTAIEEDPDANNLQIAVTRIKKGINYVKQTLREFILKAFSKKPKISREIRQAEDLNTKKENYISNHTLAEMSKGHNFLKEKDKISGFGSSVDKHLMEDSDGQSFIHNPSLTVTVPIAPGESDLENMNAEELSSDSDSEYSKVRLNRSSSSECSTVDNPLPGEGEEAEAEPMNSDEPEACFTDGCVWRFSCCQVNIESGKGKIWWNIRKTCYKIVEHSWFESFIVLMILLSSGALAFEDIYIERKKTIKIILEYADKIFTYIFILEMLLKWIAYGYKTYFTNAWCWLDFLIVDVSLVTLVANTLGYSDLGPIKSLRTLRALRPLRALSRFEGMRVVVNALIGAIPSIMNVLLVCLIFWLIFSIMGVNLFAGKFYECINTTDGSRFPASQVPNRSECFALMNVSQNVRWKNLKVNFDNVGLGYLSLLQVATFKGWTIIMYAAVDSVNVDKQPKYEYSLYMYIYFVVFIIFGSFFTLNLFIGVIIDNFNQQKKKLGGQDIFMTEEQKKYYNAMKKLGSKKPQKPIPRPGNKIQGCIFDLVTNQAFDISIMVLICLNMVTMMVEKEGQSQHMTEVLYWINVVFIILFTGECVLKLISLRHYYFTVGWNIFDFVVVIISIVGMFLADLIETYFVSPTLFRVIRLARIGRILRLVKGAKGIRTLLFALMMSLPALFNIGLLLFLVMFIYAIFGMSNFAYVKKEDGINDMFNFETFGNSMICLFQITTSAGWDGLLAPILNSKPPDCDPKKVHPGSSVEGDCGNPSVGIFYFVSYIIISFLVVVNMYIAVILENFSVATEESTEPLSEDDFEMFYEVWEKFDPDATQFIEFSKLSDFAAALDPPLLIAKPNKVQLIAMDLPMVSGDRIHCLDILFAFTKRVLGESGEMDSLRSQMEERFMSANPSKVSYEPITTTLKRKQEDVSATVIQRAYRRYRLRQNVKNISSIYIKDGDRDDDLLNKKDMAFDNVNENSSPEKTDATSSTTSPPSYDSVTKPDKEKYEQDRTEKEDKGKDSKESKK

Row | SMILES | IC50 (hNav1.3; use-dependent block, hNav1.3) [µM] | IC50 (hNav1.7; [1]) [µM] | IC50 (hNav1.5; use-dependent block, hNav1.5) [µM] | further results
1 | CCCC[C@@H]1NC(=O)CNC(=O)[C@H](CC(C)C)NC(=O)[C@@H](NC(=O)[C@@H](N)CC(=O)O)CSSC[C@@H]2NC(=O)[C@@H]3CSSC[C@@H](C(=O)N[C@@H](CCCCN)C(=O)N[C@@H](Cc4ccc(O)cc4)C(=O)N[C@H](C(=O)N[C@@H](Cc4ccccc4)C(N)=O)C(C)C)NC(=O)[C@H](Cc4c[nH]c5ccccc45)NC(=O)[C@H](CCCCN)NC(=O)[C@H](Cc4c[nH]cn4)NC(=O)[C@H]([C@@H](C)O)NC(=O)[C@H](CCCNC(=N)N)NC(=O)[C@H](CO)NC(=O)[C@H](CSSC[C@H](NC(=O)[C@H](CCCCN)NC(=O)[C@H](CCCNC(=N)N)NC(=O)[C@H](Cc4ccccc4)NC1=O)C(=O)N[C@@H]([C@@H](C)CC)C(=O)N1CCC[C@H]1C(=O)N[C@@H](CC(=O)O)C(=O)N[C@@H](CC(N)=O)C(=O)N[C@@H](CC(=O)O)C(=O)N[C@@H](CCCCN)C(=O)N3)NC(=O)[C@H](C(C)C)NC(=O)[C@H](CC(C)C)NC(=O)[C@H](CC(N)=O)NC(=O)[C@@H]1CCCN1C(=O)[C@H](CCCNC(=N)N)NC2=O [compound 607] (H-DCLG[Nle]FRKCIPDNDKCCRPNLVCSRTHKWCKYVF-NH2; disulfide 2-17, 9-23, 16-30) | 0.067 | 0.016 | 11.3 | –
2 | C#CC[C@H](NC(C)=O)C(=O)NCCCC[C@@H]1NC(=O)[C@H](CC(=O)O)NC(=O)[C@@H]2CCCN2C(=O)[C@H]([C@@H](C)CC)NC(=O)[C@@H]2CSSC[C@@H]3NC(=O)[C@H](C(C)C)NC(=O)[C@H](CC(C)C)NC(=O)[C@H](CC(N)=O)NC(=O)[C@@H]4CCCN4C(=O)[C@H](CCCNC(=N)N)NC(=O)[C@H](CSSC[C@H](NC(=O)[C@@H](N)CC(=O)O)C(=O)N[C@@H](CC(C)C)C(=O)NCC(=O)N[C@@H](C)C(=O)N[C@@H](Cc4ccccc4)C(=O)N[C@@H](CCCNC(=N)N)C(=O)N[C@@H](CCCCN)C(=O)N2)NC(=O)[C@H](CSSC[C@@H](C(=O)N[C@@H](CCCCN)C(=O)N[C@@H](Cc2ccc(O)cc2)C(=O)N[C@H](C(=O)N[C@@H](Cc2ccccc2)C(N)=O)C(C)C)NC(=O)[C@H](Cc2c[nH]c4ccccc24)NC(=O)[C@H](CCCCN)NC(=O)[C@H](Cc2c[nH]cn2)NC(=O)[C@H]([C@@H](C)O)NC(=O)[C@H](CCCNC(=N)N)NC(=O)[C@H](CO)NC3=O)NC(=O)[C@H](CCCCN)NC(=O)[C@H](CC(=O)O)NC1=O [compound 794] (H-DCLGAFRKCIPDK([Pra-Ac])DKCCRPNLVCSRTHKWCKYVF-NH2; disulfide 2-17, 9-23, 16-30) | 0.7 | 0.89 | 37.8 | –
3 | CC[C@H](C)[C@@H]1NC(=O)[C@@H]2CSSC[C@@H]3NC(=O)[C@H](C(C)C)NC(=O)[C@H](CC(C)C)NC(=O)[C@H](CC(N)=O)NC(=O)[C@@H]4CCCN4C(=O)[C@H](CCCNC(=N)N)NC(=O)[C@H](CSSC[C@H](NC(=O)[C@@H](N)CC(=O)O)C(=O)N[C@@H](CC(C)C)C(=O)NCC(=O)N[C@@H](Cc4ccccc4)C(=O)N[C@@H](CCSC)C(=O)N[C@@H](CCCNC(=N)N)C(=O)N[C@@H](CCCCN)C(=O)N2)NC(=O)[C@H](CSSC[C@@H](C(=O)N[C@@H](CCCCN)C(=O)N[C@@H](Cc2ccc(O)cc2)C(=O)N[C@H](C(=O)N[C@@H](Cc2ccc4ccccc4c2)C(N)=O)C(C)C)NC(=O)[C@H](Cc2c[nH]c4ccccc24)NC(=O)[C@H](CCCCN)NC(=O)[C@H](Cc2c[nH]cn2)NC(=O)[C@H]([C@@H](C)O)NC(=O)[C@H](CCCNC(=N)N)NC(=O)[C@H](CO)NC3=O)NC(=O)[C@H](CCCCN)NC(=O)[C@H](CC(=O)O)NC(=O)[C@H](CC(N)=O)NC(=O)[C@H](CC(=O)O)NC(=O)[C@@H]2CCCN2C1=O [compound 130] (H-DCLGFMRKCIPDNDKCCRPNLVCSRTHKWCKYV[2Nal]-NH2; disulfide 2-17, 9-23, 16-30) | – | – | – | IC50 (hNav1.3; use-dependent, […]): 0.02 µM; IC50 (hNav1.7; IonWorks Quattro, use-dependent, […], read-out: IWQ Use Nav1.7): 0.04 µM; IC50 (hNav1.5; use-dependent, […]): 3.59 µM
4 | CC[C@H](C)[C@@H]1NC(=O)CNC(=O)CNC(=O)[C@H](CC(C)C)NC(=O)[C@@H](NC(=O)[C@@H](N)CC(=O)O)CSSC[C@@H]2NC(=O)[C@@H]3CSSC[C@@H](C(=O)N[C@@H](CCCCN)C(=O)N[C@@H](Cc4ccc(O)cc4)C(=O)N[C@H](C(=O)N[C@@H](Cc4ccccc4)C(N)=O)C(C)C)NC(=O)[C@H](Cc4c[nH]c5ccccc45)NC(=O)[C@H](CCCCN)NC(=O)[C@H](Cc4c[nH]cn4)NC(=O)[C@H]([C@@H](C)O)NC(=O)[C@H](CCCNC(=N)N)NC(=O)[C@H](CO)NC(=O)[C@H](CSSC[C@H](NC(=O)[C@H](CCCCN)NC(=O)[C@H](CCCNC(=N)N)NC1=O)C(=O)N[C@@H]([C@@H](C)CC)C(=O)N1CCC[C@H]1C(=O)N[C@@H](CC(=O)O)C(=O)N[C@@H](CC(N)=O)C(=O)N[C@@H](CC(=O)O)C(=O)N[C@@H](CCCCN)C(=O)N3)NC(=O)[C@H](C(C)C)NC(=O)[C@H](CC(C)C)NC(=O)[C@H](CC(N)=O)NC(=O)[C@@H]1CCCN1C(=O)[C@H](CCCNC(=N)N)NC2=O [compound 752] (H-DCLGGIRKCIPDNDKCCRPNLVCSRTHKWCKYVF-NH2; disulfide 2-17, 9-23, 16-30) | > 5 | > 5 | 25.4 | –
5 | CC[C@H](C)[C@@H]1NC(=O)[C@@H]2CSSC[C@@H]3NC(=O)[C@H](C(C)C)NC(=O)[C@H](CC(C)C)NC(=O)[C@H](CC(N)=O)NC(=O)[C@@H]4CCCN4C(=O)[C@H](CCCNC(=N)N)NC(=O)[C@H](CSSC[C@H](NC(=O)[C@@H](N)CC(=O)O)C(=O)N[C@@H](CC(C)C)C(=O)NCC(=O)N[C@@H](Cc4ccccc4)C(=O)N[C@@H](CCSC)C(=O)N[C@@H](CCCNC(=N)N)C(=O)N[C@@H](CCCCN)C(=O)N2)NC(=O)[C@H](CSSC[C@@H](C(=O)N[C@@H](CCCCN)C(=O)N[C@@H](Cc2ccc(O)cc2)C(=O)N[C@H](C(=O)N[C@@H](Cc2ccccc2)C(N)=O)C(C)C)NC(=O)[C@H](Cc2c[nH]c4ccccc24)NC(=O)[C@H](CCCCN)NC(=O)[C@H](Cc2cnc[nH]2)NC(=O)[C@H]([C@@H](C)O)NC(=O)[C@H](CCCNC(=N)N)NC(=O)[C@H](CO)NC3=O)NC(=O)[C@H](CCCCN)NC(=O)[C@H](CC(=O)O)NC(=O)[C@H](CC(N)=O)NC(=O)[C@H](CCC(=O)O)NC(=O)[C@@H]2CCCN2C1=O [compound 26] (H-DCLGFMRKCIPENDKCCRPNLVCSRTHKWCKYVF-NH2; disulfide 2-17, 9-23, 16-30) | – | – | – | IC50 (hNav1.3; Use): 0.19 µM; IC50 (hNav1.7): 0.26 µM; IC50 (hNav1.5; Use): 6.45 µM
6 | CSCC[C@@H]1NC(=O)[C@H](Cc2ccccc2)NC(=O)CNC(=O)[C@H](CC(C)C)NC(=O)[C@@H](NC(=O)[C@H](CC(=O)O)NC(=O)[C@@H](N)Cc2c[nH]c3ccccc23)CSSC[C@@H]2NC(=O)[C@@H]3CSSC[C@@H](C(=O)N[C@@H](CCCCN)C(=O)N[C@@H](Cc4ccc(O)cc4)C(=O)N[C@H](C(=O)N[C@@H](Cc4ccccc4)C(N)=O)C(C)C)NC(=O)[C@H](Cc4c[nH]c5ccccc45)NC(=O)[C@H](CCCCN)NC(=O)[C@H](Cc4c[nH]cn4)NC(=O)[C@H]([C@@H](C)O)NC(=O)[C@H](CCCNC(=N)N)NC(=O)[C@H](CO)NC(=O)[C@H](CSSC[C@H](NC(=O)[C@H](CCCCN)NC(=O)[C@H](CCCNC(=N)N)NC1=O)C(=O)N[C@@H](Cc1cccc4ccccc14)C(=O)N1CCC[C@H]1C(=O)N[C@@H](CC(=O)O)C(=O)N[C@@H](CC(N)=O)C(=O)N[C@@H](CC(=O)O)C(=O)N[C@@H](CCCCN)C(=O)N3)NC(=O)[C@H](C(C)C)NC(=O)[C@H](CC(C)C)NC(=O)[C@H](CC(N)=O)NC(=O)[C@@H]1CCCN1C(=O)[C@H](CCCNC(=N)N)NC2=O [compound 464] | 0.22 | 0.2 | > 5 | –
7 | CC[C@H](C)[C@@H]1NC(=O)[C@@H]2CSSC[C@@H]3NC(=O)[C@H](C(C)C)NC(=O)[C@H](CC(C)C)NC(=O)[C@H](CC(N)=O)NC(=O)[C@@H]4CCCN4C(=O)[C@H](CCCNC(=N)N)NC(=O)[C@H](CSSC[C@H](NC(=O)[C@@H](N)CC(=O)O)C(=O)N[C@@H](CC(C)C)C(=O)NCC(=O)N[C@@H](C)C(=O)N[C@@H](CCSC)C(=O)N[C@@H](CCCNC(=N)N)C(=O)N[C@@H](CCCCN)C(=O)N2)NC(=O)[C@H](CSSC[C@@H](C(=O)N[C@@H](CCCCN)C(=O)N[C@@H](Cc2ccc(O)cc2)C(=O)N[C@H](C(=O)N[C@@H](Cc2ccccc2)C(N)=O)C(C)C)NC(=O)[C@H](Cc2c[nH]c4ccccc24)NC(=O)[C@H](CCCCN)NC(=O)[C@H](Cc2c[nH]cn2)NC(=O)[C@H]([C@@H](C)O)NC(=O)[C@H](CCC(=O)O)NC(=O)[C@H](CO)NC3=O)NC(=O)[C@H](CCCCN)NC(=O)[C@H](CC(=O)O)NC(=O)[C@H](CC(N)=O)NC(=O)[C@H](CC(=O)O)NC(=O)[C@@H]2CCCN2C1=O [compound 438] | 5.95 | 5.5 | 18.2 | –
8 | CC[C@H](C)[C@@H]1NC(=O)[C@@H]2CSSC[C@@H]3NC(=O)[C@H](C(C)C)NC(=O)[C@H](CC(C)C)NC(=O)[C@H](CC(N)=O)NC(=O)[C@@H]4CCCN4C(=O)[C@H](CCCNC(=N)N)NC(=O)[C@H](CSSC[C@H](NC(=O)[C@@H](N)CC(=O)O)C(=O)N[C@@H](CC(C)C)C(=O)NCC(=O)N[C@@H](C)C(=O)N[C@@H](CCSC)C(=O)N[C@@H](CCCNC(=N)N)C(=O)N[C@@H](CCCCN)C(=O)N2)NC(=O)[C@H](CSSC[C@@H](C(=O)N[C@@H](CCCCN)C(=O)N[C@@H](Cc2ccc(O)cc2)C(=O)N[C@H](C(=O)N[C@@H](C)C(N)=O)C(C)C)NC(=O)[C@H](Cc2c[nH]c4ccccc24)NC(=O)[C@H](CCCCN)NC(=O)[C@H](Cc2c[nH]cn2)NC(=O)[C@H]([C@@H](C)O)NC(=O)[C@H](CCCNC(=N)N)NC(=O)[C@H](CO)NC3=O)NC(=O)[C@H](CCCCN)NC(=O)[C@H](CC(=O)O)NC(=O)[C@H](CC(N)=O)NC(=O)[C@H](CC(=O)O)NC(=O)[C@@H]2CCCN2C1=O [compound 431] (H-DCLGAMRKCIPDNDKCCRPNLVCSRTHKWCKYVA-NH2; disulfide 2-17, 9-23, 16-30) | > 5 | > 5 | > 5 | –
